# pIC50: −log10 of the molar value.
# Biological target: T1, human Bradykinin B1 receptor (Homo sapiens, UniProt P46663)
# T1 construct: host or cells: CHO-K1
# T1 sequence (P46663 1-353): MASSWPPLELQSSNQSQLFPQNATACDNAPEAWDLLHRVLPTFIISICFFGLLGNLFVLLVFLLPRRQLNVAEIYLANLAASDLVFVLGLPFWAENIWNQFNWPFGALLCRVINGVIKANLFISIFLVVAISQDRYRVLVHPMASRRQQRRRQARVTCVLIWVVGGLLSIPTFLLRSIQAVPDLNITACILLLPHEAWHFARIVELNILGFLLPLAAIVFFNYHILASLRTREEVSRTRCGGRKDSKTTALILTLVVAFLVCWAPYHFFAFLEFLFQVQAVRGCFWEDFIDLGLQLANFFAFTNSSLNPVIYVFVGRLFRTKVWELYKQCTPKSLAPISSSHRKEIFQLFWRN
# Assay: Calcium flux Assay (FLIPR) with recombinant CHO-K1 cells expressing human Bradykinin B1 receptor, in presence (hB1 IC50) or absence (hB1 free IC50) of 0.1% BSA
# Assay type: cell-based
# Conditions: in absence of 0.1% BSA, read-out: hB1 free IC50
row,pIC50,Structure (SMILES)
1,5.63,"COc1ccc(-c2cc(F)c(NC(=O)C3(c4ccc(Cl)cc4)CC3)cc2-c2nnn[nH]2)cc1OC [Example 264, 1-(4-Chlorophenyl)-N-[5-fluoro-3′,4′-dimethoxy-2-(1H-tetrazol-5-yl)biphenyl-4-yl]cyclopropane carboxamide]"
2,7.04,"O=C(Nc1ccc(-c2ccc(C(F)F)nc2)c(-c2nnn[nH]2)c1)C1(c2ccc(F)cc2)CC1 [Example 268, N-{4-[6-(difluoromethyl)pyridin-3-yl]-3-(1H-tetrazol-5-yl)phenyl}-1-(4-fluorophenyl)cy-cloproapnecarbox-amide]"
3,7.88,"O=C(Nc1ccc(-c2ccc(C(F)F)nc2)c(-c2nnn[nH]2)c1)C1(c2ccc(Cl)cc2)CC1 [Example 269, 1-(4-chlorophenyl)-N-{4-[6-(difluoromethyl)pyridin-3-yl]-3-(1H-tetrazol-5-yl)phenyl}cyclopro-panecarboxa-mide]"
4,7.76,"O=C(Nc1ccc(-c2ccc(C(F)F)nc2)c(-c2nnn[nH]2)c1)C1(c2ccc(C(F)(F)F)cc2)CC1 [Example 270, N-{4-[6-(difluoromethyl)pyridin-3-yl]-3-(1H-tetrazol-5-yl)phenyl}-1-[4-(trifluoromethyl)phenyl]cyclopro-panecarboxamide]"
5,8.22,"O=C(Nc1ccc(-c2ccc(C(F)F)nc2)c(-c2nnn[nH]2)c1)C1(c2ccc(OC(F)(F)F)cc2)CC1 [Example 271, N-{4-[6-(difluoromethyl)pyridin-3-yl]-3-(1H-tetrazol-5-yl)phenyl}-1-[4-(trifluoromethoxy)phenyl]cyclo-propanecarboxa-mide]"
6,8.33,"O=C(Nc1ccc(-c2ccc(C(F)F)nc2)c(-c2nnn[nH]2)c1)C1(c2ccc(Cl)c(F)c2)CC1 [Example 272, 1-(4-chloro-3-fluorophenyl)-N-{4-[6-(difluoromethyl)pyridin-3-yl]-3-(1H-tetrazol-5-yl)phenyl}cyclopro-panecarboxa-mide]"
7,7.60,"O=C(Nc1ccc(-c2ccc(C(F)F)nc2)c(-c2nnn[nH]2)c1)C1(c2ccc(F)cc2F)CC1 [Example 273, N-{4-[6-(difluoromethyl)pyridin-3-yl]-3-(1H-tetrazol-5-yl)phenyl}-1-(2,4-difluorophenyl)cy-clopropanecar-boxamide]"
8,8.20,"O=C(Nc1ccc(-c2ccc(C(F)F)nc2)c(-c2nnn[nH]2)c1)C1(c2ccc(Cl)cc2F)CC1 [Example 274, 1-(4-chloro-2-fluorophenyl)-N-{4-[6-(difluoromethyl)pyridin-3-yl]-3-(1H-tetrazol-5-yl)phenyl}cyclopro-panecarboxa-mide]"
9,8.07,"Cc1ccc(C2(C(=O)Nc3ccc(-c4ccc(C(F)F)nc4)c(-c4nnn[nH]4)c3)CC2)c(F)c1 [Example 275, N-{4-[6-(difluoromethyl)pyridin-3-yl]-3-(1H-tetrazol-5-yl)phenyl}-1-(2-fluoro-4-methylphenyl)cy-clopropanecar-boxamide]"
10,8.74,"O=C(Nc1ccc(-c2ccc(C(F)F)nc2)c(-c2nnn[nH]2)c1)C1(c2ccc(OC(F)(F)F)cc2F)CC1 [Example 276, N-{4-[6-(difluoromethyl)pyridin-3-yl]-3-(1H-tetrazol-5-yl)phenyl}-1-[2-fluoro-4-(trifluoromethoxy)phenyl]cyclo-propanecarboxa-mide]"
11,8.50,"CC(F)(F)c1ccc(-c2ccc(NC(=O)C3(c4ccc(C(F)(F)F)cc4)CC3)cc2-c2nnn[nH]2)cn1 [Example 277, N-{4-[6-(1,1-difluoroethyl)py-ridin-3-yl]-3-(1H-tetrazol-5-yl)phenyl}-1-[4-(trifluoromethyl)phenyl]cyclopro-panecarboxamide]"

# Same assay, conditions: in presence of 0.1% BSA, read-out: hB1 IC50
row,pIC50,Structure (SMILES)
1,7.14,"O=C(Nc1cc(-c2nnn[nH]2)c(-c2ccc(C(F)(F)F)nc2)cc1O)C1(c2cccc(Cl)c2)CC1 [Example 262, 1-(3-chlorophenyl)-N-{2-hydroxy-5-(1H-tetrazol-5-yl)-4-[6-(trifluoromethyl)pyridin-3-yl]phenyl}cyclopro-panecarboxa-mide]"
2,6.08,"COc1ccc(-c2cc(F)c(NC(=O)C3(c4ccc(Cl)cc4)CC3)cc2-c2nnn[nH]2)cc1OC [Example 264, 1-(4-Chlorophenyl)-N-[5-fluoro-3′,4′-dimethoxy-2-(1H-tetrazol-5-yl)biphenyl-4-yl]cyclopropane carboxamide]"

# Reference: US20210317092A1 (BAYER PHARMA AKTIENGESELLSCHAFT, priority 2016, published 2021)
